Experimental data published in the NIST ThermoML archive (doi:10.1016/j.fluid.2007.07.063).
Numbers after ± are expanded uncertainties. Blank lines part the entries; values can stand above or below the compound they belong to.

Tests used:
[1] = excess molar enthalpy (molar enthalpy of mixing); xn = mol fraction of the nth substance listed; settings: 298.15 K, 101 kPa, Liquid, Flow calorimetry
[2] = 298.15 K; 101.33 kPa; Liquid; Pycnometric method

SMILES: C=CCCCCCC [oct-1-ene] + CCCCO
excess molar enthalpy ([1]; x2 = 0.095): 0.0949 ± 0.00478 kcal/mol
excess molar enthalpy ([1]; x2 = 0.209): 0.14 ± 0.00717 kcal/mol
excess molar enthalpy ([1]; x2 = 0.304): 0.154 ± 0.00789 kcal/mol
excess molar enthalpy ([1]; x2 = 0.4): 0.149 ± 0.00765 kcal/mol
excess molar enthalpy ([1]; x2 = 0.497): 0.132 ± 0.00669 kcal/mol
excess molar enthalpy ([1]; x2 = 0.595): 0.109 ± 0.0055 kcal/mol
excess molar enthalpy ([1]; x2 = 0.702): 0.0832 ± 0.0043 kcal/mol
excess molar enthalpy ([1]; x2 = 0.8): 0.0565 ± 0.00287 kcal/mol
excess molar enthalpy ([1]; x2 = 0.899): 0.0286 ± 0.00148 kcal/mol

SMILES: CCCCCCCCO [octan-1-ol]
mass density [2]: 822.47 ± 0.83 kg/m3

SMILES: CCCCCCO [hexan-1-ol]
mass density [2]: 815.4 ± 0.78 kg/m3

SMILES: CCCO [propan-1-ol]
mass density [2]: 799.65 ± 0.72 kg/m3

SMILES: C=CCCCCCC [oct-1-ene]
mass density [2]: 710.88 ± 0.64 kg/m3

SMILES: C=CCCCCCC [oct-1-ene] + CCCCCCCCO
excess molar enthalpy ([1]; x2 = 0.097): 0.0699 ± 0.00359 kcal/mol
excess molar enthalpy ([1]; x2 = 0.194): 0.0935 ± 0.00478 kcal/mol
excess molar enthalpy ([1]; x2 = 0.292): 0.104 ± 0.00526 kcal/mol
excess molar enthalpy ([1]; x2 = 0.391): 0.103 ± 0.00526 kcal/mol
excess molar enthalpy ([1]; x2 = 0.49): 0.0942 ± 0.00478 kcal/mol
excess molar enthalpy ([1]; x2 = 0.6): 0.0814 ± 0.00406 kcal/mol
excess molar enthalpy ([1]; x2 = 0.699): 0.0631 ± 0.00311 kcal/mol
excess molar enthalpy ([1]; x2 = 0.799): 0.0429 ± 0.0022 kcal/mol
excess molar enthalpy ([1]; x2 = 0.899): 0.0188 ± 0.00098 kcal/mol

Next, values leading:

excess molar enthalpy ([1]; x2 = 0.097): 0.0643 ± 0.00335 kcal/mol
excess molar enthalpy ([1]; x2 = 0.195): 0.0875 ± 0.00454 kcal/mol
excess molar enthalpy ([1]; x2 = 0.293): 0.0956 ± 0.00478 kcal/mol
excess molar enthalpy ([1]; x2 = 0.406): 0.0924 ± 0.00478 kcal/mol
excess molar enthalpy ([1]; x2 = 0.504): 0.0834 ± 0.0043 kcal/mol
excess molar enthalpy ([1]; x2 = 0.602): 0.072 ± 0.00359 kcal/mol
excess molar enthalpy ([1]; x2 = 0.7): 0.0578 ± 0.00287 kcal/mol
excess molar enthalpy ([1]; x2 = 0.8): 0.0397 ± 0.00203 kcal/mol
excess molar enthalpy ([1]; x2 = 0.902): 0.0182 ± 0.000956 kcal/mol
SMILES: C=CCCCCCC [oct-1-ene] + CCCCCCCCCCO

mass density [2]: 826.31 ± 0.74 kg/m3
SMILES: CCCCCCCCCCO [decan-1-ol]

excess molar enthalpy ([1]; x2 = 0.094): 0.104 ± 0.00526 kcal/mol
excess molar enthalpy ([1]; x2 = 0.189): 0.154 ± 0.00789 kcal/mol
excess molar enthalpy ([1]; x2 = 0.302): 0.183 ± 0.00932 kcal/mol
excess molar enthalpy ([1]; x2 = 0.398): 0.179 ± 0.00908 kcal/mol
excess molar enthalpy ([1]; x2 = 0.495): 0.163 ± 0.00837 kcal/mol
excess molar enthalpy ([1]; x2 = 0.593): 0.143 ± 0.00717 kcal/mol
excess molar enthalpy ([1]; x2 = 0.693): 0.117 ± 0.00598 kcal/mol
excess molar enthalpy ([1]; x2 = 0.799): 0.0814 ± 0.00406 kcal/mol
excess molar enthalpy ([1]; x2 = 0.899): 0.0435 ± 0.00222 kcal/mol
SMILES: C=CCCCCCC [oct-1-ene] + CCCO

excess molar enthalpy ([1]; x2 = 0.096): 0.0801 ± 0.00406 kcal/mol
excess molar enthalpy ([1]; x2 = 0.192): 0.105 ± 0.00526 kcal/mol
excess molar enthalpy ([1]; x2 = 0.307): 0.12 ± 0.00598 kcal/mol
excess molar enthalpy ([1]; x2 = 0.403): 0.118 ± 0.00598 kcal/mol
excess molar enthalpy ([1]; x2 = 0.5): 0.106 ± 0.00526 kcal/mol
excess molar enthalpy ([1]; x2 = 0.598): 0.0912 ± 0.00454 kcal/mol
excess molar enthalpy ([1]; x2 = 0.697): 0.0724 ± 0.00359 kcal/mol
excess molar enthalpy ([1]; x2 = 0.802): 0.0491 ± 0.00263 kcal/mol
excess molar enthalpy ([1]; x2 = 0.9): 0.0233 ± 0.00122 kcal/mol
SMILES: C=CCCCCCC [oct-1-ene] + CCCCCCO

mass density [2]: 805.71 ± 0.73 kg/m3
SMILES: CCCCO [butan-1-ol]
